Measurements taken from article PMC7413516, “Antidepressant-like activity and safety profile evaluation of 1H-imidazo[2,1-f]purine-2,4(3H,8H)-dione derivatives as 5-HT1A receptor partial agonists” (PLoS ONE, 2020).
Values joined by “and” are separate entries in the source; they are usually repeats but may differ in a detail not shown here. Equal values may be shown once. Read-outs that look alike come from different tables or passages of the source.

Assay: Pharmacokinetic study in mice, plasma and brain structures, LC/MS/MS
Assay type: in vivo, Swiss albino mice
Details: 1.25 mg/kg i.p.; for Kp: ratio of AUC values
Method: Blood samples from the Swiss albino mice were collected at 0 (pre-dose), 5, 15, 30, 60, 120, 240 and 480 min after a compound administration. The blood samples and brain structures were collected under general anesthesia induced by i.p. injection of 50 mg/kg ketamine plus 8 mg/kg xylazine. The blood samples were taken into heparinized tubes, immediately centrifuged at 1000 × g for 10 min, and plasma was collected. The plasma samples and brain structures were immediately frozen at -30°C and -80°C, respectively.
The plasma and tissue sample pretreatment procedure involved acetonitrile precipitation. A 5 μL aliquot of the IS working solution (100 ng/mL) was added to 50 μL of the collected mouse plasma sample, which was then vortex-mixed for 10 seconds. Thereafter, 200 μL of acetonitrile was added, vortexed during 20 min, and then centrifuged (1000 × g, 10 min). The supernatant (100 μL) was then transferred to insert placed in an autosampler vial, and a 10 μL volume of this was injected onto the HPLC column. Tissue samples were thawed before use, and whole hippocampus, striatum and frontal cortex were weighted and placed in a glass mortar and pestle tissue grinder and homogenized with an appropriate amount of phosphate buffer (pH 7.4) in 1:5 ratio. Afterward, 50 μL of tissue homogenates were transferred to new Eppendorf tubes and spiked with 5 μL of the internal standard working solution. All samples were stored on ice during the preparation process. This was followed by procedures like those described above.
The LC/ESI-MS/MS experiments were performed on an Applied Biosystems/MDS Sciex (Concord, Ontario, Canada) API 2000 triple quadrupole mass spectrometer equipped with an electrospray (ESI) ionization interface. This instrument was coupled to an Agilent 1100 (Agilent Technologies, Waldbronn, Germany) LC system. Data acquisition and processing were accomplished using Sciex Analyst 1.4.2 data collection and integration software.
An XBridge C18 (2.1 x 30 mm, 3.5 μm) analytical column (Waters, Milford, Massachusetts, USA) was used for compound separation. The temperatures of the column thermostat and the autosampler were set at 25°C and 10°C, respectively. The mobile phase consisted of a mixture of acetonitrile with addition of 0.1% formic acid (solvent A) and water with addition of 0.1% formic acid (solvent B) and was set at a flow rate of 0.6 mL/min. Starting amount of solvent A is 10%, isocratic elution from 0 to 3 min, and then gradient up to 90% of solvent A, and maintained to 10 min, and then gradient down to 10% of solvent A, and maintained to 15 min.
The ion source parameters were as follows: ion spray voltage: 5500 V; nebulizer gas (gas 1): 20 psi; turbo gas (gas 2): 25 psi; temperature of the heated nebulizer: 400°C; curtain gas: 40 psi; collision gas: 6 psi. Mass spectra were acquired by SRM with precursor/predominant product ion transitions for each analyte. The mass spectral Q1→Q3 transitions monitored for AZ-853, AZ-861 and for IS (nebivolol), were m/z 453.9→235.1; 504.3→285.1 and 406.2→151.1, respectively. The peak widths of precursor and product ions were set to 0.7 full width half-height. Quantification was done via peak area ratio.
Pharmacokinetic parameters were calculated by a non-compartmental approach from the average concentration values, using Phoenix WinNonlin software (Certara, Princeton, NJ 08540 USA). First order elimination rate constant (λz) was calculated by linear regression of time versus log concentration. Next, the area under the mean serum and tissue concentration versus time curve (AUC0→t) was estimated using the log-linear trapezoidal rule (1), where Ci is the plasma concentration measured at t1.
AUC0→t=∑i=1n((Ci+Ci+1)/2)∙(ti+1−ti). (1)
Area under the first-moment curve (AUMC0→t) was estimated by calculation of the total area under the first-moment curve using the Eq (2), where Ci is the plasma concentration measured at t1. AUMC0→t=∑i=1n((ti∙Ci+ti+1∙Ci+1)/2)∙(ti+1−ti). […]

t0.5: ca. 1.5 h | t0.5, frontal cortex: 91.6 min | t0.5, hippocampus: 110.4 min | t0.5, striatum: 83 min | t0.5, plasma (1.25 mg/kg): 97 min and 97.5 min | Concentration, plasma (individual animals) (5 min, 1.25 mg/kg): 45.82 ng/mL | Vd/F (plasma, 1.25 mg/kg): 83 L/kg and 83.4 L/kg | Kp (Swiss albino, mouse, frontal cortex, ip, read-out: Brain structure-to-plasma concentration ratio, frontal cortex (FC/P)): 10.5 | AUC(0-t) (Swiss albino, mouse, frontal cortex, ip, read-out: AUC0→t, frontal cortex (converted)): 363 ng·h/mL | MRT (Swiss albino, mouse, frontal cortex, ip, read-out: MRT, frontal cortex (converted)): 1.54 h | concentration at 5 min (Swiss albino, mouse, frontal cortex, ip, 1.25 mg/kg, 5 min, read-out: Concentration, frontal cortex (Mean)): 355 ng/mL | concentration at 5 min (Swiss albino, mouse, frontal cortex, ip, 1.25 mg/kg, 5 min, read-out: Concentration, frontal cortex (individual animals)): 408 ng/mL | concentration at 15 min (Swiss albino, mouse, frontal cortex, ip, 1.25 mg/kg, 15 min, read-out: Concentration, frontal cortex (Mean)): 251 ng/mL | concentration at 15 min (Swiss albino, mouse, frontal cortex, ip, 1.25 mg/kg, 15 min, read-out: Concentration, frontal cortex (individual animals)): 233 ng/mL | concentration at 30 min (Swiss albino, mouse, frontal cortex, ip, 1.25 mg/kg, 30 min, read-out: Concentration, frontal cortex (Mean)): 201 ng/mL | concentration at 30 min (Swiss albino, mouse, frontal cortex, ip, 1.25 mg/kg, 30 min, read-out: Concentration, frontal cortex (individual animals)): 209 ng/mL | concentration at 60 min (Swiss albino, mouse, frontal cortex, ip, 1.25 mg/kg, 60 min, read-out: Concentration, frontal cortex (Mean)): 95.8 ng/mL | concentration at 60 min (Swiss albino, mouse, frontal cortex, ip, 1.25 mg/kg, 60 min, read-out: Concentration, frontal cortex (individual animals)): 104 ng/mL | concentration at 120 min (Swiss albino, mouse, frontal cortex, ip, 1.25 mg/kg, 120 min, read-out: Concentration, frontal cortex (Mean)): 41 ng/mL | concentration at 120 min (Swiss albino, mouse, frontal cortex, ip, 1.25 mg/kg, 120 min, read-out: Concentration, frontal cortex (individual animals)): 40.3 ng/mL | concentration at 240 min (Swiss albino, mouse, frontal cortex, ip, 1.25 mg/kg, 240 min, read-out: Concentration, frontal cortex (Mean)): 12.8 ng/mL | concentration at 240 min (Swiss albino, mouse, frontal cortex, ip, 1.25 mg/kg, 240 min, read-out: Concentration, frontal cortex (individual animals)): 9.95 ng/mL | concentration at 480 min (Swiss albino, mouse, frontal cortex, ip, 1.25 mg/kg, read-out: Concentration, frontal cortex (Mean)): 2.98 ng/mL | concentration at 480 min (Swiss albino, mouse, frontal cortex, ip, 1.25 mg/kg, read-out: Concentration, frontal cortex (individual animals)): 1.96 ng/mL | Cmax (Swiss albino, mouse, frontal cortex, ip, 1.25 mg/kg, read-out: Cmax, frontal cortex): 355 ng/g | Tmax (Swiss albino, mouse, frontal cortex, ip, 1.25 mg/kg, read-out: tmax, frontal cortex (converted)): 5 min | Kp (Swiss albino, mouse, hippocampus, ip, read-out: Brain structure-to-plasma concentration ratio, hippocampus (H/P)): 12.6 | AUC(0-t) (Swiss albino, mouse, hippocampus, ip, read-out: AUC0→t, hippocampus (converted)): 436 ng·h/mL | MRT (Swiss albino, mouse, hippocampus, ip, read-out: MRT, hippocampus (converted)): 1.78 h | concentration at 5 min (Swiss albino, mouse, hippocampus, ip, 1.25 mg/kg, 5 min, read-out: Concentration, hippocampus (Mean)): 274 ng/mL
Structure (SMILES): Cn1c(=O)c2c(nc3n(CCCCN4CCN(c5cccc(C(F)(F)F)c5)CC4)ccn23)n(C)c1=O [AZ-861, 1,3-dimethyl-8-(4-(4-(3-(trifluoromethyl)phenyl)piperazin-1-yl)butyl)-1H-imidazo[2,1-f]purine-2,4(3H,8H)-dione]
Concentration, frontal cortex (individual animals) (15 min, 1.25 mg/kg): 230.57 ng/mL and 280.45 ng/mL and 263.78 ng/mL and 270.14 ng/mL and 226.47 ng/mL | Concentration, hippocampus (individual animals) (15 min, 1.25 mg/kg): 234.13 ng/mL and 378.52 ng/mL and 328.15 ng/mL and 322.19 ng/mL and 317.44 ng/mL | Concentration, plasma (individual animals) (15 min, 1.25 mg/kg): 44.70 ng/mL and 36.90 ng/mL and 42.80 ng/mL and 28.74 ng/mL and 38.15 ng/mL | Concentration, striatum (individual animals) (15 min, 1.25 mg/kg): 389.35 ng/mL and 271.77 ng/mL and 374.54 ng/mL and 325.44 ng/mL and 267.13 ng/mL | Concentration, frontal cortex (individual animals) (30 min, 1.25 mg/kg): 184.45 ng/mL and 218.78 ng/mL and 190.14 ng/mL and 183.24 ng/mL and 219.17 ng/mL | Concentration, hippocampus (individual animals) (30 min, 1.25 mg/kg): 192.35 ng/mL and 319.65 ng/mL and 217.19 ng/mL and 301.16 ng/mL and 245.19 ng/mL | Concentration, plasma (individual animals) (30 min, 1.25 mg/kg): 31.10 ng/mL and 30.60 ng/mL and 22.40 ng/mL and 15.17 ng/mL and 19.56 ng/mL and 30.17 ng/mL | Concentration, striatum (individual animals) (30 min, 1.25 mg/kg): 310.53 ng/mL and 258.57 ng/mL and 322.23 ng/mL and 318.66 ng/mL and 277.19 ng/mL | Concentration, frontal cortex (individual animals) (60 min, 1.25 mg/kg): 97.18 ng/mL and 109.15 ng/mL and 91.75 ng/mL and 83.56 ng/mL and 89.47 ng/mL | Concentration, hippocampus (individual animals) (60 min, 1.25 mg/kg): 110.60 ng/mL and 98.83 ng/mL and 88.50 ng/mL and 94.16 ng/mL and 88.17 ng/mL | Concentration, plasma (individual animals) (60 min, 1.25 mg/kg): 6.60 ng/mL and 4.60 ng/mL and 6.58 ng/mL and 5.72 ng/mL and 4.19 ng/mL | Concentration, striatum (individual animals) (60 min, 1.25 mg/kg): 69.53 ng/mL and 62.19 ng/mL and 51.27 ng/mL and 55.66 ng/mL and 48.45 ng/mL | Concentration, frontal cortex (individual animals) (120 min, 1.25 mg/kg): 41.78 ng/mL and 43.56 ng/mL and 39.11 ng/mL and 40.15 ng/mL and 41.18 ng/mL | Concentration, hippocampus (individual animals) (120 min, 1.25 mg/kg): 51.18 ng/mL and 56.82 ng/mL and 60.95 ng/mL and 47.42 ng/mL and 49.13 ng/mL | Concentration, plasma (individual animals) (120 min, 1.25 mg/kg): 2.36 ng/mL and 2.87 ng/mL and 3.33 ng/mL and 3.12 ng/mL and 1.97 ng/mL | Concentration, striatum (individual animals) (120 min, 1.25 mg/kg): 30.75 ng/mL and 29.92 ng/mL and 21.66 ng/mL and 19.44 ng/mL and 23.17 ng/mL | Concentration, frontal cortex (individual animals) (240 min, 1.25 mg/kg): 18.75 ng/mL and 10.56 ng/mL and 16.25 ng/mL and 9.48 ng/mL | Concentration, hippocampus (individual animals) (240 min, 1.25 mg/kg): 15.35 ng/mL and 24.14 ng/mL and 23.55 ng/mL and 16.56 ng/mL | Concentration, plasma (individual animals) (240 min, 1.25 mg/kg): 0.67 ng/mL and 0.70 ng/mL and 0.34 ng/mL and 0.41 ng/mL and 0.57 ng/mL and 0.66 ng/mL | Concentration, striatum (individual animals) (240 min, 1.25 mg/kg): 4.87 ng/mL and 5.95 ng/mL and 6.85 ng/mL and 4.94 ng/mL
